According to ChEMBL document CHEMBL4411344, “Synthesis and biological evaluation of new long-chain squaramides as anti-chagasic agents in the BALB/c mouse model” (Bioorg Med Chem, 2019):

Columns and labels:
Trypanosoma cruzi [1] = assay: Trypanocidal activity against Trypanosoma cruzi MHOM/Pe/2011/Arequipa DTU 5 epimastigotes after 72 hrs by resazurin dye based assay; format: functional, organism-based; details: MHOM/Pe/2011/Arequipa DTU 5, 72 h
Trypanosoma cruzi [2] = assay: Trypanocidal activity against Trypanosoma cruzi MHOM/Pe/2011/Arequipa DTU 5 amastigotes infected in African green monkey Vero cells after 72 hrs by Giemsa-staining based microscopic assay; format: functional, organism-based; details: MHOM/Pe/2011/Arequipa DTU 5, Vero
Trypanosoma cruzi [3] = assay: Trypanocidal activity against Trypanosoma cruzi MHOM/Pe/2011/Arequipa DTU 5 trypomastigotes derived from infected Balb/c mouse after 72 hrs by resazurin dye based assay; format: functional, organism-based; details: MHOM/Pe/2011/Arequipa DTU 5, 72 h
Trypanosoma cruzi [4] = assay: Trypanocidal activity against Trypanosoma cruzi IRHOD/CO/2008/SN3 DTU 1 epimastigotes after 72 hrs by resazurin dye based assay; format: functional, organism-based; details: IRHOD/CO/2008/SN3 DTU 1, 72 h
Trypanosoma cruzi [5] = assay: Trypanocidal activity against Trypanosoma cruzi IRHOD/CO/2008/SN3 DTU 1 amastigotes infected in African green monkey Vero cells after 72 hrs by Giemsa-staining based microscopic assay; format: functional, organism-based; details: IRHOD/CO/2008/SN3 DTU 1, Vero
Trypanosoma cruzi [6] = assay: Trypanocidal activity against Trypanosoma cruzi IRHOD/CO/2008/SN3 DTU 1 trypomastigotes derived from infected Balb/c mouse after 72 hrs by resazurin dye based assay; format: functional, organism-based; details: IRHOD/CO/2008/SN3 DTU 1, 72 h
Trypanosoma cruzi [7] = assay: Trypanocidal activity against Trypanosoma cruzi TINF/CH/1956/Tulahuen DTU 6 epimastigotes after 72 hrs by resazurin dye based assay; format: functional, organism-based; details: TINF/CH/1956/Tulahuen DTU 6, 72 h
Trypanosoma cruzi [8] = assay: Trypanocidal activity against Trypanosoma cruzi TINF/CH/1956/Tulahuen DTU 6 amastigotes infected in African green monkey Vero cells after 72 hrs by Giemsa-staining based microscopic assay; format: functional, organism-based; details: TINF/CH/1956/Tulahuen DTU 6, Vero
Trypanosoma cruzi [9] = assay: Trypanocidal activity against Trypanosoma cruzi TINF/CH/1956/Tulahuen DTU 6 trypomastigotes derived from infected Balb/c mouse after 72 hrs by resazurin dye based assay; format: functional, organism-based; details: TINF/CH/1956/Tulahuen DTU 6, 72 h
Vero = assay: Cytotoxicity against African green monkey Vero cells assessed as reduction in cell viability after 72 hrs by resazurin dye based assay; details: Chlorocebus sabaeus
[10] = Selectivity index, ratio of IC50 for African green monkey Vero cells to IC50 for Trypanosoma cruzi MHOM/Pe/2011/Arequipa DTU 5 epimastigotes; format: toxicity; details: read-out: Ratio IC50
[11] = Selectivity index, ratio of IC50 for African green monkey Vero cells to IC50 for Trypanosoma cruzi MHOM/Pe/2011/Arequipa DTU 5 amastigotes infected in African green monkey Vero cells; format: toxicity; details: read-out: Ratio IC50
[12] = Selectivity index, ratio of IC50 for African green monkey Vero cells to IC50 for Trypanosoma cruzi MHOM/Pe/2011/Arequipa DTU 5 trypomastigotes derived from infected Balb/c mouse; format: toxicity; details: read-out: Ratio IC50
[13] = Selectivity index, ratio of IC50 for African green monkey Vero cells to IC50 for Trypanosoma cruzi IRHOD/CO/2008/SN3 DTU 1 epimastigotes; format: toxicity; details: read-out: Ratio IC50
[14] = Selectivity index, ratio of IC50 for African green monkey Vero cells to IC50 for Trypanosoma cruzi IRHOD/CO/2008/SN3 DTU 1 amastigotes infected in African green monkey Vero cells; format: toxicity; details: read-out: Ratio IC50
[15] = Selectivity index, ratio of IC50 for African green monkey Vero cells to IC50 for Trypanosoma cruzi IRHOD/CO/2008/SN3 DTU 1 trypomastigotes derived from infected Balb/c mouse; format: toxicity; details: read-out: Ratio IC50
[16] = Selectivity index, ratio of IC50 for African green monkey Vero cells to IC50 for Trypanosoma cruzi TINF/CH/1956/Tulahuen DTU 6 epimastigotes; format: toxicity; details: read-out: Ratio IC50
[17] = Selectivity index, ratio of IC50 for African green monkey Vero cells to IC50 for Trypanosoma cruzi TINF/CH/1956/Tulahuen DTU 6 amastigotes infected in African green monkey Vero cells; format: toxicity; details: read-out: Ratio IC50
[18] = Selectivity index, ratio of IC50 for African green monkey Vero cells to IC50 for Trypanosoma cruzi TINF/CH/1956/Tulahuen DTU 6 trypomastigotes derived from infected Balb/c mouse; format: toxicity; details: read-out: Ratio IC50

| SMILES | IC50 (Trypanosoma cruzi [1]) [µM] | IC50 (Trypanosoma cruzi [2]) [µM] | IC50 (Trypanosoma cruzi [3]) [µM] | IC50 (Trypanosoma cruzi [4]) [µM] | IC50 (Trypanosoma cruzi [5]) [µM] | IC50 (Trypanosoma cruzi [6]) [µM] | IC50 (Trypanosoma cruzi [7]) [µM] | IC50 (Trypanosoma cruzi [8]) [µM] | IC50 (Trypanosoma cruzi [9]) [µM] | IC50 (Vero) [µM] | selectivity ratio [10] | selectivity ratio [11] | selectivity ratio [12] | selectivity ratio [13] | selectivity ratio [14] | selectivity ratio [15] | selectivity ratio [16] | selectivity ratio [17] | selectivity ratio [18] |
| --- | --- | --- | --- | --- | --- | --- | --- | --- | --- | --- | --- | --- | --- | --- | --- | --- | --- | --- | --- |
| CCNc1c(N(C)CCCN(C)C)c(=O)c1=O | 41.3 | 27.8 | 29.1 | 41 | 54.5 | 28 | 27.8 | 31.6 | 26.6 | 900 | 21.8 | 32.3 | 30.9 | 22 | 16.5 | 32.1 | 32.4 | 28.5 | 33.8 |
| CN(C)CCCN(C)c1c(N)c(=O)c1=O | 42.3 | 39.6 | 33.2 | 33.7 | 62.6 | 30.2 | 42.6 | 51.3 | 33.6 | 1070 | 25.3 | 27 | 32.2 | 31.8 | 17.1 | 35.4 | 25.1 | 20.8 | 31.8 |
| CN(C)CCCN(C)c1c(NCCCN(C)CCCNc2c(N(C)CCCN(C)C)c(=O)c2=O)c(=O)c1=O | 177 |  |  | 311 |  |  | 241 |  |  | 2170 | 12.2 |  |  | 7 |  |  | 9 |  |  |
| CCCCCCCCCCCCNc1c(N(C)CCCN(C)C)c(=O)c1=O | 64.6 |  |  | 37.5 |  |  | 49.5 |  |  | 128 | 2 |  |  | 3.4 |  |  | 2.6 |  |  |
| CCCCCCCCCCCCOc1c(N(C)CCCN(C)C)c(=O)c1=O | 36.2 |  |  | 19.4 | 28.4 | 24.1 | 14.6 | 25.5 | 19.1 | 291 | 8 |  |  | 15 | 10.3 | 12.1 | 19.9 | 11.4 | 15.3 |
| CN(C)CCCN(C)c1c(N(C)CCCN(C)C)c(=O)c1=O | 107 |  |  | 404 |  |  | 360 |  |  | 1140 | 10.6 |  |  | 2.8 |  |  | 3.2 |  |  |
| CCCCCCCCCCCC[N+](C)(C)CCCN(C)c1c(OCC)c(=O)c1=O | 63.3 |  |  | 74.5 |  |  | 89.1 |  |  | 353 | 5.6 |  |  | 4.7 |  |  | 4 |  |  |
| CCCCCCCCNc1c(N(C)CCCN(C)C)c(=O)c1=O | 102 |  |  | 87.8 |  |  | 82 |  |  | 1150 | 11.4 |  |  | 13.2 |  |  | 14.2 |  |  |
| CCCCCCCCCCCCCCCCOP(=O)([O-])OCC[N+](C)(C)C [MILTEFOSINE] | 20.8 | 29.6 | 18.8 | 55.9 | 39.7 | 34.8 | 22.9 | 31.8 | 20.1 | 21.6 | 1 | 0.7 | 1.2 | 0.4 | 0.5 | 0.6 | 0.9 | 0.7 | 1.1 |
| CCCCNc1c(N(C)CCCN(C)C)c(=O)c1=O | 12.4 | 14.7 | 10.4 | 15.2 | 13.1 | 7.5 | 9.1 | 11.7 | 8.9 | 439 | 35.4 | 29.9 | 42.2 | 28.9 | 33.5 | 58.6 | 48.3 | 37.5 | 49.3 |
| CCCCCCCCCCCC[N+](C)(C)CCCN(C)c1c(O)c(=O)c1=O | 22.1 |  |  | 33.1 |  |  | 66.1 |  |  | 160 | 7.2 |  |  | 4.8 |  |  | 2.4 |  |  |
